Among the test systems are EKVX NSCLC; BT-549 breast; OVCAR-8 ovarian; MDA-MB-435; HL-60(TB) leukemia; NCI/ADR-RES ovarian; OVCAR-3 ovarian; UO-31 renal; SK-OV-3 ovarian; PC-3 prostate.
Holding throughout (experiment): NCI anticancer screen, dose series, 48 h

Values joined by “and” are separate entries in the source; they are usually repeats but may differ in a detail not shown here. Equal entries are not always repeated.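 Step 1: Grow cells in 96-well plates. Step 2: Expose to compound for 48 hours at 5 concentrations. Step 3: Interpolate endpoints linearly; if unreached, use highest concentration. GI50: concentration for 50% inhibition of growth. At the TGI there is no net growth.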

With `COC(=O)[C@]12CC[C@@H](C)[C@H](C)[C@@H]1C1=CC[C@@H]3[C@@]4(C)CC(=O)[C@H](O)[C@@](C)(CO)[C@@H]4C(=O)C[C@@]3(C)[C@]1(C)CC2`, the GI50 in the assay with EKVX NSCLC is 14.8 µM; in the assay on BT-549 breast it was 11.3 µM; with OVCAR-8 ovarian it was 4.89 µM; in the assay with MDA-MB-435, 12.6 µM; in the assay on HL-60(TB) leukemia it was 9.21 µM; in the assay with NCI/ADR-RES ovarian it was 12.1 µM. Also, the GI50 was 11.6 µM in the assay with OVCAR-3 ovarian, 5.7 µM in the assay with UO-31 renal, 16.6 µM with SK-OV-3 ovarian and 0.931 µM in the assay on PC-3 prostate. Further, the TGI in the assay with EKVX NSCLC was found to be 29.2 µM; in the assay on BT-549 breast, 23.5 µM; in the assay on OVCAR-8 ovarian, 22.6 µM; with MDA-MB-435, 25.1 µM; in the assay with HL-60(TB) leukemia, 28.4 µM; in the assay on NCI/ADR-RES ovarian it was 32.4 µM. The TGI in the assay with OVCAR-3 ovarian was 24.8 µM; in the assay on UO-31 renal, 23.4 µM; with SK-OV-3 ovarian, 30.5 µM; in the assay on PC-3 prostate, 15 µM.
Turning to `CC/C(=N/N=C(N)N)c1ccc(NC(=O)Nc2ccc(/C(CC)=N/N=C(N)N)cc2)cc1`, the GI50 in the assay with EKVX NSCLC is 6.55 µM; in the assay on BT-549 breast it was 3.83 µM; in the assay with OVCAR-8 ovarian, 5.95 µM; in the assay with MDA-MB-435, 3.72 µM; with HL-60(TB) leukemia it was 2.85 µM; with NCI/ADR-RES ovarian, 24.7 µM. For the same molecule, the GI50 in the assay on OVCAR-3 ovarian was 6.19 µM; in the assay with UO-31 renal, 12.4 µM; with SK-OV-3 ovarian, 16.5 µM; in the assay with PC-3 prostate, 6.27 µM. For the same molecule, the TGI in the assay with EKVX NSCLC is 39.6 µM; in the assay with BT-549 breast, 21.1 µM; in the assay on OVCAR-8 ovarian, more than 100 µM; in the assay on MDA-MB-435, 16.2 µM; in the assay on HL-60(TB) leukemia, 21.8 µM; in the assay on NCI/ADR-RES ovarian it was more than 100 µM. Also, the TGI is 32 µM in the assay on OVCAR-3 ovarian, 27.2 µM in the assay with UO-31 renal, 64.5 µM in the assay on SK-OV-3 ovarian and 33.7 µM with PC-3 prostate.
Take `O=C(Nc1ccccc1)Nc1ccc(Cl)c(Cl)c1`: the GI50 in the assay on EKVX NSCLC was 2.93 µM; in the assay with BT-549 breast, 4.99 µM; in the assay with OVCAR-8 ovarian, 3.2 µM; in the assay with MDA-MB-435, 3.26 µM; with HL-60(TB) leukemia, 3.98 µM; in the assay on NCI/ADR-RES ovarian, 3.05 µM. The GI50 is 2.44 µM in the assay on OVCAR-3 ovarian, 2.62 µM with UO-31 renal, 5.52 µM in the assay on SK-OV-3 ovarian and 2.41 µM in the assay on PC-3 prostate. Besides, the TGI in the assay with EKVX NSCLC is more than 100 µM; with BT-549 breast, 85.9 µM; in the assay with OVCAR-8 ovarian, 79.3 µM; in the assay with MDA-MB-435, 33.9 µM; with HL-60(TB) leukemia, 26.9 µM; in the assay on NCI/ADR-RES ovarian it was 83.8 µM. Moreover, the TGI is 8.76 µM in the assay on OVCAR-3 ovarian, 21.9 µM with UO-31 renal, more than 100 µM in the assay with SK-OV-3 ovarian and 9.72 µM with PC-3 prostate.
For the molecule `COC1=CC2CCN3Cc4cc5c(cc4C(C1O)C23)OCC5` (stereo not given), the GI50 with EKVX NSCLC was 4.66 µM; in the assay on BT-549 breast, 3.94 µM; with OVCAR-8 ovarian, 3.75 µM; with MDA-MB-435, 3.44 µM; in the assay on HL-60(TB) leukemia it was 4.75 µM; in the assay on NCI/ADR-RES ovarian it was 3 µM. The GI50 was 1.78 µM in the assay with OVCAR-3 ovarian, 5.88 µM in the assay on UO-31 renal, 1.84 µM in the assay with SK-OV-3 ovarian and 2.67 µM in the assay on PC-3 prostate. The TGI in the assay on EKVX NSCLC is 32.6 µM; in the assay on BT-549 breast, more than 47 µM; in the assay with OVCAR-8 ovarian it was 37.3 µM; in the assay with MDA-MB-435 it was 21.3 µM; in the assay with HL-60(TB) leukemia it was more than 25.7 µM; in the assay on NCI/ADR-RES ovarian, 18.4 µM. Moreover, the TGI in the assay with OVCAR-3 ovarian is 5.62 µM; in the assay on UO-31 renal, more than 46.6 µM; with SK-OV-3 ovarian, more than 100 µM; with PC-3 prostate, more than 47 µM.
Regarding `CC[C@@]1(O)C(=O)NCc2c1cc1n(c2=O)Cc2cc3c(NC(C)=O)cccc3nc2-1`, the GI50 in the assay with EKVX NSCLC, in the assay on BT-549 breast, in the assay with OVCAR-8 ovarian, with MDA-MB-435, in the assay on HL-60(TB) leukemia and in the assay on NCI/ADR-RES ovarian was more than 100 µM each time. The GI50 with OVCAR-3 ovarian, in the assay on UO-31 renal, in the assay with SK-OV-3 ovarian and with PC-3 prostate was more than 100 µM in each case. The TGI with EKVX NSCLC, in the assay with BT-549 breast, in the assay on OVCAR-8 ovarian, in the assay with MDA-MB-435, with HL-60(TB) leukemia and in the assay with NCI/ADR-RES ovarian was more than 100 µM in each case. For the same molecule, the TGI with OVCAR-3 ovarian, in the assay with UO-31 renal, with SK-OV-3 ovarian and with PC-3 prostate was more than 100 µM in each case.
For the molecule `COC(=O)c1ccc2c(C(=Nc3ccc(N(C)C(=O)CN4CCN(C)CC4)cc3)c3ccccc3)c(O)[nH]c2c1`, the GI50 in the assay with EKVX NSCLC is 10.6 µM and 49.6 µM; in the assay on BT-549 breast, 6.6 µM and 11.7 µM; in the assay with OVCAR-8 ovarian, 2.31 µM and 2.43 µM; with MDA-MB-435, 1.63 µM and 1.6 µM; with HL-60(TB) leukemia, 9.41 µM and 9.59 µM; with NCI/ADR-RES ovarian it was 14.4 µM and > 32.7 µM. The GI50 was 7.08 µM and 19.9 µM in the assay with OVCAR-3 ovarian; 1.2 µM and 0.739 µM with UO-31 renal; 12.3 µM and > 57.6 µM with SK-OV-3 ovarian; 5.2 µM and 25.6 µM with PC-3 prostate. The TGI was more than 100 µM in the assay with EKVX NSCLC; 22 µM and 29.7 µM in the assay with BT-549 breast; 27.6 µM and > 100 µM in the assay on OVCAR-8 ovarian; 3.09 µM and 3.05 µM with MDA-MB-435; 32.3 µM and 32.1 µM in the assay with HL-60(TB) leukemia; more than 100 µM in the assay with NCI/ADR-RES ovarian. Besides, the TGI in the assay on OVCAR-3 ovarian was 16.1 µM and 47 µM; in the assay on UO-31 renal, 5.76 µM and > 34 µM; with SK-OV-3 ovarian, 44.1 µM and > 100 µM; with PC-3 prostate it was 53.2 µM and > 100 µM.
`N=C1/C(=C2\Nc3ccccc3S2)CC(=O)N1c1ccc(SC(F)F)cc1`: the GI50 with EKVX NSCLC was 24.5 µM; in the assay with BT-549 breast it was more than 100 µM; in the assay with OVCAR-8 ovarian it was 7.42 µM; in the assay with MDA-MB-435 it was 7.69 µM; in the assay with HL-60(TB) leukemia it was 5.02 µM; in the assay on NCI/ADR-RES ovarian, 6.52 µM. For the same molecule, the GI50 in the assay with OVCAR-3 ovarian is 17.1 µM; with UO-31 renal, 7.38 µM; in the assay on SK-OV-3 ovarian, 8.6 µM; in the assay on PC-3 prostate, 3.55 µM. Besides, the TGI with EKVX NSCLC, in the assay on BT-549 breast, with OVCAR-8 ovarian, with MDA-MB-435, in the assay with HL-60(TB) leukemia and with NCI/ADR-RES ovarian was more than 100 µM each time. The TGI in the assay with OVCAR-3 ovarian is more than 100 µM; in the assay on UO-31 renal it was more than 100 µM; with SK-OV-3 ovarian, more than 100 µM; with PC-3 prostate, 93.5 µM.

Source of the values: PubChem BioAssay (NCI).
